Assays:
Type in all cases: biochemical
Recombinant Human MMP-13 = target: T1, Recombinant Human MMP-13 (Homo sapiens, UniProt P45452); experiment: MMP-13 inhibition, MMP-13 specific fluorescent substrate with quencher; conditions: synthetic substrate 7-MCA-Pro-CHA-Gly-NVal-His-Ala-DPA, 25° C. for 1 h; read-out: Experimental Example 3 IC50 MMP13
T1 construct: purchased R&D systems 511-MM
Experimental: Inhibitory activity of tested compounds on MMP-13 was measured using MMP-13 specific fluorescent substrate with quencher.
The enzyme and substrate were diluted with Tris-HCl buffer, and test compounds were diluted with dimethyl sulfoxide (DMSO).
Test compounds and the enzyme (Recombinant Human MMP-13: R&D systems, 511-MM) were added into 96-well plate. The reaction was initiated by adding synthetic substrate (7-MCA-Pro-CHA-Gly-NVal-His-Ala-DPA: enzyme systems products, Met-06) into the plate. After incubation at 25° C. for 1 h, the reaction was terminated by addition of reaction terminating solution containing acetic acid. Fluorescence intensity of each well was measured (Ex: 325 nm, Em: 405 nm) and the MMP-13 inhibitory activity of the compound in each well (%) was calculated based on the values of enzyme-free well and inhibitor-free well. The inhibitory activity of the compound was represented as IC50 (μM).

aggrecanase-1 = target: T2, aggrecanase-1 (Homo sapiens, UniProt O75173); experiment: Aggrecanase-1 inhibitory action, Particle Assay (GAG release from aggrecan-containing polyacrylamide particles); conditions: 37° C. for 15 hr, read-out: Experimental Example 1 IC50 AG1
T2 sequence (O75173 213-837): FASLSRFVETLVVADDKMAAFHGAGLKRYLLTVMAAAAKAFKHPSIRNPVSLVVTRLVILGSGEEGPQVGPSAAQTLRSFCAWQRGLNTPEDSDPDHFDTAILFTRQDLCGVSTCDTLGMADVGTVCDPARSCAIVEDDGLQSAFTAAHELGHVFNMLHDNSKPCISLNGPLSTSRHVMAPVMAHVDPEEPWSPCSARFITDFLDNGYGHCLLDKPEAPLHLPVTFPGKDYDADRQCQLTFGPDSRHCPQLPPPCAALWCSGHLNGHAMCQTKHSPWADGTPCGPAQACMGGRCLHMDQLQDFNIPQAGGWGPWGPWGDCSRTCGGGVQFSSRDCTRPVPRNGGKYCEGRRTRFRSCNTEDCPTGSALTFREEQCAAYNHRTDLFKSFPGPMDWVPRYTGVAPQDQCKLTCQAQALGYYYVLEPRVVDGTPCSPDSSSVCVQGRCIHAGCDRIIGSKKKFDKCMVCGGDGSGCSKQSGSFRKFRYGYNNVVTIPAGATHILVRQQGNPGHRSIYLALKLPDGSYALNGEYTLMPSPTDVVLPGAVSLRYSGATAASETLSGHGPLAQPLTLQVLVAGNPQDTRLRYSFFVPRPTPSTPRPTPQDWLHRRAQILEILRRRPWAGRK
In short: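 IC50 (μM) derived from % inhibition, referenced to enzyme-free and inhibitor-free wells, of GAG release read as 1,9-dimethylmethylene blue absorbance at 595 nm (chondroitin sulfate standard). Substrate: aggrecan-bearing polyacrylamide particles, exposed to enzyme plus compound in Tris-HCl for 15 hr at 37 °C.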

MMP-1 = target: T3, MMP-1 (Homo sapiens, UniProt P03956); experiment: MMP-1 inhibitory action, Type I collagen Activity Measurement kit (FITC-labeled collagen type I); conditions: 37° C. for 3 hr, read-out: Experimental Example 2 IC50 MMP1
T3 sequence (P03956 100-469): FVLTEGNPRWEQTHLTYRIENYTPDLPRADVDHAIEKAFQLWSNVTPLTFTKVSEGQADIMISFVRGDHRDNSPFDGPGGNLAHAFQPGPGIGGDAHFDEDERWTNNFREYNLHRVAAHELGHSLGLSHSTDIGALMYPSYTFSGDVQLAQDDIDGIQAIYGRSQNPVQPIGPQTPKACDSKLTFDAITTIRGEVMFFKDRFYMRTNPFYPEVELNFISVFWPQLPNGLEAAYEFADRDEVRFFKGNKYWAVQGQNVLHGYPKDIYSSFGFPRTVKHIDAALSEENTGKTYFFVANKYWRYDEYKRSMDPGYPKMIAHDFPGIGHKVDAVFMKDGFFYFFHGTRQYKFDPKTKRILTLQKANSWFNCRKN

Compound | IC50 (Recombinant Human MMP-13) | IC50 (aggrecanase-1) | IC50 (MMP-1)
O=C(O)[C@@]12C[C@@]1(c1ccccc1)COCN2S(=O)(=O)c1ccc(-c2ccc(Cl)cc2)s1 (relative stereo) [Example 2-01, (1R*,6S*)-2-[5-(4-chlorophenyl)-thiophene-2-sulfonyl]-6-phenyl-4-oxa-2-aza-bicyclo[4.1.0]heptane-1-carboxylic acid] | ≥ 1 µM | ≥ 1 µM | ≥ 10 µM
O=C(O)c1cnn(CCN([C@]2(C(=O)O)C[C@H]2c2ccccc2)S(=O)(=O)N2CCN(c3ccc(C(F)(F)F)cc3)CC2)c1 (relative stereo) [Example 2-05, 1-(2-{((1R*,2S*)-1-Carboxy-2-phenyl-cyclopropyl)-[4-(4-trifluoromethyl-phenyl)-piperazine-1-sulfonyl]-amino}-ethyl)-1H-pyrazole-4-carboxylic acid] | ≥ 1 µM | < 1 µM | ≥ 10 µM
Nc1nnn(CCN([C@]2(C(=O)O)C[C@H]2c2ccccc2)S(=O)(=O)N2CCN(c3ccc(C(F)(F)F)cc3)CC2)n1 (relative stereo) [Example 2-06, (1R*,2S*)-1-{[2-(5-Amino-tetrazol-2-yl)-ethyl]-[4-(4-trifluoromethyl-phenyl)-piperazine-1-sulfonyl]-amino}-2-phenyl-cyclopropanecarboxylic acid] | ≥ 10 µM | ≥ 1 µM | ≥ 10 µM
Nc1nnnn1CCN([C@]1(C(=O)O)C[C@H]1c1ccccc1)S(=O)(=O)N1CCN(c2ccc(C(F)(F)F)cc2)CC1 (relative stereo) [Example 2-07, (1R*,2S*)-1-{[2-(5-Amino-tetrazol-1-yl)-ethyl]-[4-(4-trifluoromethyl-phenyl)-piperazine-1-sulfonyl]-amino}-2-phenyl-cyclopropanecarboxylic acid] | ≥ 10 µM | ≥ 1 µM | ≥ 10 µM
O=C(O)[C@@]12C[C@]1(c1ccccc1)CCCN2S(=O)(=O)c1ccc(-c2ccc(Cl)cc2)s1 (relative stereo) [Example 2-13, (1R*,6S*)-2-[5-(4-Chloro-phenyl)-thiophene-2-sulfonyl]-6-phenyl-2-aza-bicyclo[4.1.0]heptane-1-carboxylic acid] | ≥ 1 µM | < 1 µM | ≥ 10 µM
O=C(O)[C@@]12C[C@]1(c1ccccc1)CCCN2S(=O)(=O)c1ccc(-c2cc(C(F)(F)F)on2)s1 (relative stereo) [Example 2-22, (1R*,6S*)-6-Phenyl-2-[5-(5-trifluoromethyl-isoxazol-3-yl)-thiophene-2-sulfonyl]-2-aza-bicyclo[4.1.0]heptane-1-carboxylic acid] | ≥ 1 µM | ≥ 1 µM | ≥ 10 µM
O=C(O)[C@@]12C[C@]1(c1ccccc1)CCN2S(=O)(=O)c1ccc(-c2ccc(Cl)cc2)s1 (relative stereo) [Example 2-23, (1R*,5S*)-2-[5-(4-Chloro-phenyl)-thiophene-2-sulfonyl]-5-phenyl-2-aza-bicyclo[3.1.0]hexane-1-carboxylic acid] | ≥ 1 µM | ≥ 1 µM | ≥ 10 µM
CN([C@]1(C(=O)O)C[C@@]1(CN1CCOCC1)c1ccccc1)S(=O)(=O)c1ccc(-c2cc(C(F)(F)F)on2)s1 (relative stereo) [Example 2-24, (1R*,2S*)-1-{Methyl-[5-(5-trifluoromethyl-isoxazol-3-yl)-thiophene-2-sulfonyl]-amino}-2-morpholin-4-ylmethyl-2-phenyl-cyclopropanecarboxylic acid] | ≥ 10 µM | ≥ 1 µM | ≥ 10 µM
O=C(O)[C@@]12C[C@]1(c1ccccc1)COC(CO)CN2S(=O)(=O)c1ccc(-c2ccc(Cl)cc2)s1 (relative stereo) [Example 2-26, (1R*,7R*)-2-[5-(4-Chloro-phenyl)-thiophene-2-sulfonyl]-4-hydroxymethyl-7-phenyl-5-oxa-2-aza-bicyclo[5.1.0]octane-1-carboxylic acid] | ≥ 1 µM | ≥ 1 µM | ≥ 10 µM
CN([C@@]1(C(=O)O)C[C@@H]1c1ccccc1)S(=O)(=O)c1ccc(-c2ccc(Cl)cc2)s1 [Example 2-03, (1S,2R)-1-{[5-(4-Chloro-phenyl)-thiophene-2-sulfonyl]-methyl-amino}-2-phenyl-cyclopropanecarboxylic acid] | ≥ 10 µM | ≥ 1 µM | ≥ 10 µM
O=C(O)C1(N(CCO)S(=O)(=O)c2ccc(-c3ccc(Cl)cc3)s2)CC1c1ccccc1 (stereo not drawn) [Example 2-04, (1R*,2S*)-1-[[5-(4-Chloro-phenyl)-thiophene-2-sulfonyl]-(2)-hydroxy-ethyl)-amino]-2-phenyl-cyclopropanecarboxylic acid] | ≥ 1 µM | ≥ 1 µM | ≥ 10 µM
O=C(O)CN([C@]1(C(=O)O)C[C@H]1c1ccccc1)S(=O)(=O)c1ccc(-c2ccc(Cl)cc2)s1 [Example 2-08, (1R,2S)-1-{Carboxymethyl-[5-(4-chloro-phenyl)-thiophene-2-sulfonyl]-amino}-2-phenyl-cyclopropanecarboxylic acid] | ≥ 10 µM | < 0.1 µM | ≥ 10 µM
O=C(O)CN([C@]1(C(=O)O)C[C@H]1c1ccccc1)S(=O)(=O)c1ccc(-c2cc(C(F)(F)F)on2)s1 [Example 2-09, (1R,2S)-1-{Carboxymethyl-[5-(5-trifluoromethyl-isoxazol-3-yl)-thiophene-2-sulfonyl]-amino}-2-phenyl-cyclopropanecarboxylic acid] | ≥ 1 µM | < 0.1 µM | ≥ 10 µM
O=C(O)CN([C@@]1(C(=O)O)C[C@@H]1c1ccccc1)S(=O)(=O)c1ccc(-c2ccc(Cl)cc2)s1 [Example 2-10, (1S,2R)-1-{Carboxymethyl-[5-(4-chloro-phenyl)-thiophene-2-sulfonyl]-amino}-2-phenyl-cyclopropanecarboxylic acid] | ≥ 10 µM | < 1 µM | ≥ 10 µM
CN1CCN(C(=O)CN([C@@]2(C(=O)O)C[C@@H]2c2ccccc2)S(=O)(=O)c2ccc(-c3ccc(Cl)cc3)s2)CC1 [Example 2-11, (1S,2R)-1-{[5-(4-Chloro-phenyl)-thiophene-2-sulfonyl]-[2-(4-methyl-piperazin-1-yl)-2-oxo-ethyl]-amino}-2-phenyl-cyclopropanecarboxylic acid] | ≥ 10 µM | ≥ 1 µM | ≥ 10 µM
CN([C@]1(C(=O)O)C[C@H]1c1ccccc1)S(=O)(=O)c1ccc(-c2ccc(Cl)cc2)s1 [Example 2-12, (1R,2S)-1-{[5-(4-Chloro-phenyl)-thiophene-2-sulfonyl]-methyl-amino}-2-phenyl-cyclopropanecarboxylic acid] | ≥ 1 µM | ≥ 1 µM | ≥ 10 µM
CN1CCN(C(=O)OCCN([C@]2(C(=O)O)C[C@H]2c2ccccc2)S(=O)(=O)c2ccc(-c3ccc(Cl)cc3)s2)CC1 [Example 2-15, 4-Methyl-piperazine-1-carboxylic acid 2-{((1R,2S)-1-carboxy-2-phenyl-cyclopropyl)-[5-(4-chloro-phenyl)-thiophene-2-sulfonyl]-amino}-ethyl ester] | ≥ 1 µM | ≥ 1 µM | ≥ 10 µM
O=C(CN([C@]1(C(=O)O)C[C@H]1c1ccccc1)S(=O)(=O)c1ccc(-c2ccc(Cl)cc2)s1)N1CCOCC1 [Example 2-16, (1R,2S)-1-[[5-(4-Chloro-phenyl)-thiophene-2-sulfonyl]-(2-morpholin-4-yl-2-oxo-ethyl)-amino]-2-phenyl-cyclopropanecarboxylic acid] | ≥ 1 µM | ≥ 1 µM | ≥ 10 µM
